Test results taken from patent US20250230193A1, “CYCLIC COMPOUND HAVING SELECTIVE KRAS INHIBITORY EFFECT ON HRAS AND NRAS” (CHUGAI SEIYAKU KABUSHIKI KAISHA, priority 2022, published 2025).

Experiments:
[1] = target: GDP-bound NRAS wild-type protein (Homo sapiens, UniProt P01111); experiment: Binding to NRAS by surface plasmon resonance (SPR), Single Cycle Kinetics; settings: SPR, GDP-bound NRAS wild-type vs GDP-bound KRAS wild-type
[2] = target: GDP-bound HRAS wild-type protein (Homo sapiens, UniProt P01112); experiment: Binding to HRAS by surface plasmon resonance (SPR), Single Cycle Kinetics; settings: SPR, GDP-bound HRAS wild-type vs GDP-bound KRAS wild-type
Chain of GDP-bound HRAS wild-type protein (P01112 whole entry): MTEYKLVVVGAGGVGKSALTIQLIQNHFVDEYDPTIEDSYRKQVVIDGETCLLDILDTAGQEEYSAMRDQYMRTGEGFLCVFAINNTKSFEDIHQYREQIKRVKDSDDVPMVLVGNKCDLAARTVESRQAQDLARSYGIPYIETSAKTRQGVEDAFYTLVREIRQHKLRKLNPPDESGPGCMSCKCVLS

Chain of GDP-bound NRAS wild-type protein (P01111 whole entry): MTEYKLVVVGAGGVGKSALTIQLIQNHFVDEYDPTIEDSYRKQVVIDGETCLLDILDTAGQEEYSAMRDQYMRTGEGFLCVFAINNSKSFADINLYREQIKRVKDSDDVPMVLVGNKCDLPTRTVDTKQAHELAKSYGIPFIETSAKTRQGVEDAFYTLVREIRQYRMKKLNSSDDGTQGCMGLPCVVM

Structure (SMILES) | NRAS/KRAS (ratio of KD value with respect to NRAS to KD value with respect to KRAS) [1] | HRAS/KRAS (ratio of KD value with respect to HRAS to KD value with respect to KRAS) [2]
CCCN(C)C(=O)[C@@H]1CC(=O)N(C)[C@@H](COCC)C(=O)N[C@@H]([C@@H](C)CC)C(=O)N(C)CC(=O)N(C)[C@H]2C/C=C\CCN(C2=O)[C@@H](Cc2ccc(C(F)(F)F)cc2)C(=O)N(C)CC(=O)N[C@@H](CCc2cc(F)c(C(F)(F)F)c(F)c2)C(=O)N2C[C@@H](C)C[C@H]2C(=O)NC2(CC(C)(C)C2)C(=O)N(C)[C@@H](C2CCCC2)C(=O)N1C [PP2041] | A (a compound having 10 or more and less than 20 is denoted as A) | A (a compound having 10 or more and less than 20 is denoted as A)
CCOC[C@H]1C(=O)N[C@@H]([C@@H](C)CC)C(=O)N(C)CC(=O)N(C)[C@H]2C/C=C\CCN(C2=O)[C@@H](Cc2ccc(C(F)(F)F)cc2)C(=O)N(C)CC(=O)N[C@@H](CCc2cc(F)c(C(F)(F)F)c(F)c2)C(=O)N2C[C@@H](C)C[C@H]2C(=O)NC2(CC(C)(C)C2)C(=O)N(C)[C@@H](C2CCCC2)C(=O)N(C)[C@H](C(=O)N(C)CC)CC(=O)N1C [PP2042] | A (a compound having 10 or more and less than 20 is denoted as A) | A (a compound having 10 or more and less than 20 is denoted as A)
CCCOC[C@H]1C(=O)N[C@@H]([C@@H](C)CC)C(=O)N(C)CC(=O)N(C)[C@H]2C/C=C\CCN(C2=O)[C@@H](Cc2ccc(C(F)(F)F)cc2)C(=O)N(C)CC(=O)N[C@@H](CCc2cc(F)c(C(F)(F)F)c(F)c2)C(=O)N2C[C@@H](C)C[C@H]2C(=O)NC2(CC(C)(C)C2)C(=O)N(C)[C@@H](C2CCCC2)C(=O)N(C)[C@H](C(=O)N(C)CC)CC(=O)N1C [PP2043] | A (a compound having 10 or more and less than 20 is denoted as A) | A (a compound having 10 or more and less than 20 is denoted as A)
CCO[C@@H]1C[C@H]2C(=O)NC3(CC(C)(C)C3)C(=O)N(C)[C@@H](C3CCCC3)C(=O)N(C)[C@H](C(=O)N(C)CC)CC(=O)N(C)[C@@H](CC(C)C)C(=O)N[C@@H]([C@@H](C)CC)C(=O)N(C)CC(=O)N(C)[C@H]3C/C=C\CCN(C3=O)[C@@H](Cc3ccc(C(F)F)cc3)C(=O)N(C)CC(=O)N[C@@H](CCc3cc(F)c(C(F)(F)F)c(F)c3)C(=O)N2C1 [PP2046] | A (a compound having 10 or more and less than 20 is denoted as A) | A (a compound having 10 or more and less than 20 is denoted as A)
CCO[C@@H]1C[C@H]2C(=O)NC3(CC(C)(C)C3)C(=O)N(C)[C@@H](C3CCCC3)C(=O)N(C)[C@H](C(=O)N(C)C)CC(=O)N(C)[C@@H](CC)C(=O)N[C@@H]([C@@H](C)CC)C(=O)N(C)CC(=O)N(C)[C@H]3C/C=C\CCN(C3=O)[C@@H](Cc3ccc(Cl)cc3F)C(=O)N(C)CC(=O)N[C@@H](CCc3cc(F)c(C(F)(F)F)c(F)c3)C(=O)N2C1 [PP2048] | A (a compound having 10 or more and less than 20 is denoted as A) | B (a compound having 3 or more and less than 10 is denoted as B)
CCO[C@@H]1C[C@H]2C(=O)NC3(CC(C)(C)C3)C(=O)N(C)[C@@H](C3CCCC3)C(=O)N(C)[C@H](C(=O)N(C)C)CC(=O)N(C)[C@@H](CC)C(=O)N[C@@H]([C@@H](C)CC)C(=O)N(C)CC(=O)N(C)[C@H]3C/C=C\CCN(C3=O)[C@@H](Cc3ccc(C(F)F)cc3)C(=O)N(C)CC(=O)N[C@@H](CCc3cc(F)c(C(F)(F)F)c(F)c3)C(=O)N2C1 [PP2049] | A (a compound having 10 or more and less than 20 is denoted as A) | B (a compound having 3 or more and less than 10 is denoted as B)
C=CCN1CC(=O)N(C)[C@H]2C/C=C\CCN(C2=O)[C@@H](Cc2ccc(C)cc2)C(=O)N(C)CC(=O)N[C@@H](CCc2cc(F)c(C(F)(F)F)c(F)c2)C(=O)N2C[C@H](OCC)C[C@H]2C(=O)NC2(CC(C)(C)C2)C(=O)N(C)[C@@H](C2CCCC2)C(=O)N(C)[C@H](C(=O)N(C)C)CC(=O)N(C)[C@@H](CC(C)C)C(=O)N[C@@H]([C@@H](C)CC)C1=O [PP2050] | A (a compound having 10 or more and less than 20 is denoted as A) | A (a compound having 10 or more and less than 20 is denoted as A)
C#CC[C@H]1C(=O)N[C@@H]([C@@H](C)CC)C(=O)N(C)CC(=O)N(C)[C@H]2C/C=C\CCN(C2=O)[C@@H](Cc2ccc(C(F)(F)F)cc2)C(=O)N(C)CC(=O)N[C@@H](CCc2ccc(C(F)(F)F)c(OC)c2)C(=O)N2C[C@H](OCC)C[C@H]2C(=O)NC2(CC(C)(C)C2)C(=O)N(C)[C@@H](C2CCCC2)C(=O)N(C)[C@H](C(=O)N(C)CC)CC(=O)N1C [PP2051] | A (a compound having 10 or more and less than 20 is denoted as A) | A (a compound having 10 or more and less than 20 is denoted as A)
C#CCN1CC(=O)N(C)[C@H]2C/C=C\CCN(C2=O)[C@@H](Cc2ccc(C)cc2)C(=O)N(C)CC(=O)N[C@@H](CCc2cc(F)c(C(F)(F)F)c(F)c2)C(=O)N2C[C@H](OCC)C[C@H]2C(=O)NC2(CC(C)(C)C2)C(=O)N(C)[C@@H](C2CCCC2)C(=O)N(C)[C@H](C(=O)N(C)C)CC(=O)N(C)[C@@H](CC(C)C)C(=O)N[C@@H]([C@@H](C)CC)C1=O [PP2052] | A (a compound having 10 or more and less than 20 is denoted as A) | A (a compound having 10 or more and less than 20 is denoted as A)
C#CC[C@H]1C(=O)N[C@@H]([C@@H](C)CC)C(=O)N(C)CC(=O)N(C)[C@H]2C/C=C\CCN(C2=O)[C@@H](Cc2ccc(C(F)(F)F)cc2)C(=O)N(C)CC(=O)N[C@@H](CCc2ccc(C(F)(F)F)c(OC)c2)C(=O)N2C[C@H](OCC)C[C@H]2C(=O)NC2(CC(C)(C)C2)C(=O)N(C)[C@@H](C2CCCC2)C(=O)N(C)[C@H](C(=O)N(C)CCC)CC(=O)N1C [PP2053] | A (a compound having 10 or more and less than 20 is denoted as A) | A (a compound having 10 or more and less than 20 is denoted as A)
CCC[C@H]1C(=O)N[C@@H]([C@@H](C)CC)C(=O)N(CCC)CC(=O)N(C)[C@H]2C/C=C\CCN(C2=O)[C@@H](Cc2ccc(C)cc2)C(=O)N(C)CC(=O)N[C@@H](CCc2ccc(C(F)(F)F)c(OC)c2)C(=O)N2C[C@H](OCC)C[C@H]2C(=O)NC2(CC(C)(C)C2)C(=O)N(C)[C@@H](C2CCCC2)C(=O)N(C)[C@H](C(=O)N(C)C)CC(=O)N1C [PP2054] | A (a compound having 10 or more and less than 20 is denoted as A) | A (a compound having 10 or more and less than 20 is denoted as A)
C#CC[C@H]1C(=O)N[C@@H]([C@@H](C)CC)C(=O)N(C)CC(=O)N(C)[C@H]2C/C=C\CCN(C2=O)[C@@H](Cc2ccc(C(F)(F)F)cc2)C(=O)N(C)CC(=O)N[C@@H](CCc2ccc(C(F)(F)F)c(OC)c2)C(=O)N2C[C@@H](C)C[C@H]2C(=O)NC2(CC(C)(C)C2)C(=O)N(C)[C@@H](C2CCCC2)C(=O)N(C)[C@H](C(=O)N(C)CC)CC(=O)N1C [PP2055] | A (a compound having 10 or more and less than 20 is denoted as A) | B (a compound having 3 or more and less than 10 is denoted as B)
C#CC[C@H]1C(=O)N[C@@H]([C@@H](C)CC)C(=O)N(C)CC(=O)N(C)[C@H]2C/C=C\CCN(C2=O)[C@@H](Cc2ccc(C(F)(F)F)cc2)C(=O)N(C)CC(=O)N[C@@H](CCc2ccc(C(F)(F)F)c(OC)c2)C(=O)N2C[C@@H](C)C[C@H]2C(=O)NC2(CC(C)(C)C2)C(=O)N(C)[C@@H](C2CCCC2)C(=O)N(C)[C@H](C(=O)N(C)CCC)CC(=O)N1C [PP2057] | A (a compound having 10 or more and less than 20 is denoted as A) | A (a compound having 10 or more and less than 20 is denoted as A)
C=CCN1CC(=O)N(C)[C@H]2C/C=C\CCN(C2=O)[C@@H](Cc2ccc(C)cc2)C(=O)N(C)CC(=O)N[C@@H](CCc2ccc(C(F)(F)F)c(OC)c2)C(=O)N2C[C@H](OCC)C[C@H]2C(=O)NC2(CC(C)(C)C2)C(=O)N(C)[C@@H](C2CCCC2)C(=O)N(C)[C@H](C(=O)N(C)C)CC(=O)N(C)[C@@H](CC(C)C)C(=O)N[C@@H]([C@@H](C)CC)C1=O [PP2058] | A (a compound having 10 or more and less than 20 is denoted as A) | A (a compound having 10 or more and less than 20 is denoted as A)
C#CC[C@H]1C(=O)N[C@@H]([C@@H](C)CC)C(=O)N(C)CC(=O)N(C)[C@H]2C/C=C\CCN(C2=O)[C@@H](Cc2ccc(C(F)(F)F)cc2)C(=O)N(C)CC(=O)N[C@@H](CCc2ccc(C(F)(F)F)c(OC)c2)C(=O)N2C[C@H](OCC)C[C@H]2C(=O)NC2(CCC2)C(=O)N(C)[C@@H](C2CCCC2)C(=O)N(C)[C@H](C(=O)N(C)CCC)CC(=O)N1C [PP2059] | A (a compound having 10 or more and less than 20 is denoted as A) | A (a compound having 10 or more and less than 20 is denoted as A)
C#CC[C@H]1C(=O)N[C@@H]([C@@H](C)CC)C(=O)N(C)CC(=O)N(C)[C@H]2C/C=C\CCN(C2=O)[C@@H](Cc2ccc(C(F)(F)F)cc2)C(=O)N(C)CC(=O)N[C@@H](CCc2ccc(C(F)(F)F)c(OC)c2)C(=O)N2C[C@@H](C)C[C@H]2C(=O)NC2(CCC2)C(=O)N(C)[C@@H](C2CCCC2)C(=O)N(C)[C@H](C(=O)N(C)CC)CC(=O)N1C [PP2061] | AA (a compound having 20 or more is denoted as AA) | A (a compound having 10 or more and less than 20 is denoted as A)
